Test results: patent publication US7410974B2, “Halogenated Quinazolinyl nitrofurans as antibacterial agents” (Ulysses Pharmaceutical Products, Inc., priority 2003, dated 2008)
≈ marks a conversion by molar mass, not a printed value. Where two headings read alike, the source gives them in different places.

Assays:
S. aureus ATCC 29213 = experiment: MIC broth microdilution (NCCLS); assay type: cell-based, Staphylococcus aureus; settings: Staphylococcus aureus, ATCC29213; S. aureus ATCC 29213; read-out: MIC
[1] = tested on: S. epidermidis ATCC 12228; experiment: MIC broth microdilution (NCCLS); assay type: cell-based, Staphylococcus epidermidis; settings: Staphylococcus epidermidis, ATCC12228; S. epidermidis ATCC 12228; read-out: MIC
How it was run: (§1)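 Susceptibility by NCCLS microdilution: checked inoculum 10^5-10^6 CFU/ml, 24 h at 35° C, and growth assessed at 650 nm and by eye. Haemophilus was tested in HTM medium and Listeria with laked horse blood, each incubated under 5% CO2.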

E. faecium ATCC 35667 = experiment: MIC broth microdilution (NCCLS); assay type: cell-based, Enterococcus faecium; settings: Enterococcus faecium, ATCC35667, E. faecium ATCC 35667; read-out: MIC
How it was run: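 NCCLS broth microdilution; inoculum 10^5-10^6 CFU/ml; 2-fold serial dilutions; 35° C, 24 h; A650 plus visual read. Media: MHBCA (S. saprophyticus, E. faecium), MHBCA + 2% laked horse blood (Listeria), HTM (Haemophilus), the last two under 5% CO2.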

E. coli ATCC 25922 = experiment: MIC broth microdilution (NCCLS); assay type: cell-based, Escherichia coli
S. typhimurium ATCC14028 = experiment: MIC broth microdilution (NCCLS); assay type: cell-based, Salmonella typhimurium; settings: Salmonella enterica; S. typhimurium ATCC14028; read-out: MIC
Procedure: (§2) Minimal Inhibitory Concentration (MIC) Determination. Bacteria (primary strain panel, TABLE 1). Susceptibility tests were performed following the recommendations from the National Committee for Clinical Standards (NCCLS). The MICs were determined by a broth microdilution technique using a final volume of 100 μl of cation-adjusted Mueller Hinton Broth (MHBCA) and a bacterial inoculum of 10^5-10^6 Colony Forming Units (CFU)/ml. The inocula were verified and precisely determined by applying 10-μl drops of 10-fold dilutions onto Triptic Soy Agar plates. The CFU were counted after an incubation of 24 h at 35° C. Any experiment showing an inoculum that was more or less than 10^5-10^6 CFU/ml was rejected. Control antibiotics and test compounds were prepared at a concentration equivalent to 2-fold the highest desired final concentration. Compounds were then diluted directly in the 96-well microtiter plates by serial 2-fold dilutions using a multichannel pipette. Microtiter plates were incubated during 24 h at 35° C. and growth was recorded by using a microtiterplate reader at 650 nm as well as by visual observation. The MIC was defined as the lowest concentration of compound yielding no visible growth. […] Fastidious bacteria. The medium used for Listeria monocytogenes, Neisseria meningitidis, and Campylobacter jejuni was MHBCA containing 2% laked horse blood. The medium used for Haemophilus influenzae and Branhamella (Moraxella) catarrhalis was HTM as recommended by the NCCLS. Cultures of these fastidious bacteria were incubated at 35° C. in a 5% CO2 atmosphere. […] The medium used for Bacteroides fragilis was Wilkins Chalgren broth and growth was allowed under an anaerobic atmosphere at 35° C. for 48 hours.

A. baumannii ATCC 19606 = experiment: MIC broth microdilution (NCCLS); assay type: cell-based, Acinetobacter baumannii; settings: Acinetobacter baumannii, ATCC19606, read-out: MIC
How it was run: as §1

[2] = tested on: Y. enterocolytica ATCC 23715; experiment: MIC broth microdilution (NCCLS); assay type: cell-based, Yersinia enterocolytica; settings: Yersinia, ATCC23715, read-out: MIC
How it was run: as §1

M. smegmatis ATCC 19420 = experiment: MIC broth microdilution (NCCLS), fastidious bacteria; assay type: cell-based, Mycobacterium smegmatis; settings: Mycolicibacterium smegmatis, ATCC19420, read after 48 hours
Procedure: as §2

MRSA strain Sa211c = experiment: MIC broth microdilution, antibiotic resistant strain panel; assay type: cell-based, Staphylococcus aureus; settings: Staphylococcus aureus; multi-resistant MRSA strain Sa211c; read-out: MIC
How it was run: (§3)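 MHBCA, 10^5-10^6 CFU/ml, 2-fold serial dilutions, 24 h at 35° C. Growth read at 650 nm and visually. MIC = lowest concentration with no visible growth.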

MRSA strain Sa212c = experiment: as above; assay type: cell-based, Staphylococcus aureus; settings: Staphylococcus aureus; multi-resistant MRSA strain Sa212c; read-out: MIC
How it was run: as §3

MRSA strain Sa220c = experiment: as above; assay type: cell-based, Staphylococcus aureus; settings: Staphylococcus aureus; multi-resistant MRSA strain Sa220c; read-out: MIC
How it was run: as §3

MRSA strain Sa224c = experiment: as above; assay type: cell-based, Staphylococcus aureus; settings: Staphylococcus aureus; multi-resistant MRSA strain Sa224c; read-out: MIC
How it was run: as §3

MRSA strain Sa228c = experiment: as above; assay type: cell-based, Staphylococcus aureus; settings: Staphylococcus aureus; multi-resistant MRSA strain Sa228c; read-out: MIC
How it was run: as §3

MRSA strain Sa234c = experiment: as above; assay type: cell-based, Staphylococcus aureus; settings: Staphylococcus aureus; multi-resistant MRSA strain Sa234c; read-out: MIC
How it was run: as §3

MRSA strain Sa248c = experiment: as above; assay type: cell-based, Staphylococcus aureus; settings: Staphylococcus aureus; multi-resistant MRSA strain Sa248c; read-out: MIC
How it was run: as §3

MRSA strain Sa249c = experiment: as above; assay type: cell-based, Staphylococcus aureus; settings: Staphylococcus aureus; multi-resistant MRSA strain Sa249c; read-out: MIC
How it was run: as §3

MRSA strain Sa253c = experiment: as above; assay type: cell-based, Staphylococcus aureus; settings: Staphylococcus aureus; multi-resistant MRSA strain Sa253c; read-out: MIC
How it was run: as §3

E. coli MC4100 = experiment: MIC broth microdilution (NCCLS); assay type: cell-based; settings: Escherichia coli; E. coli MC4100, pathotype Reference
Procedure: as §2

[3] = tested on: E. coli ATCC 35150 (O157:H7); experiment: MIC broth microdilution, E. coli strains; assay type: cell-based; settings: Escherichia coli, ATCC35150
Procedure: as §2
(§4) Finally, compounds were also tested against populations of various clinical strains (antibiotic resistant strain panel, TABLE 1).

E. coli Ec022c (EIEC) = experiment: MIC broth microdilution, E. coli strains; assay type: cell-based; settings: Escherichia coli, pathotype EIEC
Procedure: as §2, §4

E. coli Ec027c (EIEC) = experiment: MIC broth microdilution, E. coli strains; assay type: cell-based; settings: Escherichia coli, pathotype EIEC
Procedure: as §2, §4

E. coli Ec117c (EIEC) = experiment: MIC broth microdilution, E. coli strains; assay type: cell-based; settings: Escherichia coli, pathotype EIEC
Procedure: as §2, §4

E. coli Ec118c (EIEC) = experiment: MIC broth microdilution, E. coli strains; assay type: cell-based; settings: Escherichia coli, pathotype EIEC
Procedure: as §2, §4

E. coli Ec119c (EIEC) = experiment: MIC broth microdilution, E. coli strains; assay type: cell-based; settings: Escherichia coli, pathotype EIEC
Procedure: as §2, §4

[4] = tested on: E. coli d25-ALR-pen14 (O157:H7); experiment: MIC broth microdilution, E. coli strains; assay type: cell-based; settings: Escherichia coli
Procedure: as §2, §4

[5] = tested on: E. coli d4-OLR-pen10 (O157:H7); experiment: MIC broth microdilution, E. coli strains; assay type: cell-based; settings: Escherichia coli
Procedure: as §2, §4

[6] = Escherichia coli, ATCC25922, E. coli ATCC 25922 (Reference), read-out: MIC

SMILES	MIC (S. aureus ATCC 29213)	MIC [1]	MIC (E. faecium ATCC 35667)	MIC (E. coli ATCC 25922; [6])	MIC (S. typhimurium ATCC14028)	MIC (A. baumannii ATCC 19606)	MIC [2]	MIC (M. smegmatis ATCC 19420)	MIC (MRSA strain Sa211c)	MIC (MRSA strain Sa212c)	MIC (MRSA strain Sa220c)	MIC (MRSA strain Sa224c)	MIC (MRSA strain Sa228c)	MIC (MRSA strain Sa234c)	MIC (MRSA strain Sa248c)	MIC (MRSA strain Sa249c)	MIC (MRSA strain Sa253c)	MIC (E. coli MC4100)	MIC [3]	MIC (E. coli Ec022c (EIEC))	also measured
O=[N+]([O-])c1ccc(C=Cc2nc(Nc3ccc(O)cc3)c3cc(F)ccc3n2)o1 [Compound V, 6-fluoro-2-[2-(5-nitro-2-furyl)vinyl]-4-(p-hydroxyanilino)-quinazoline]	0.03 to 0.06 µg/mL (≈ 0.0765 to 0.153 µM)	0.03 µg/mL (≈ 0.0765 µM)	0.06 µg/mL (≈ 0.153 µM)	0.5 µg/mL (≈ 1.27 µM)	1 µg/mL (≈ 2.55 µM)	1 to 2 µg/mL (≈ 2.55 to 5.1 µM)	0.25 µg/mL (≈ 0.637 µM)	0.06 µg/mL (≈ 0.153 µM)	≤ 0.06 µg/mL	0.125 µg/mL (≈ 0.319 µM)	≤ 0.06 µg/mL	≤ 0.06 µg/mL	≤ 0.06 µg/mL	≤ 0.06 µg/mL	≤ 0.06 µg/mL	≤ 0.06 µg/mL	≤ 0.06 µg/mL	1 µg/mL (≈ 2.55 µM)	1 µg/mL (≈ 2.55 µM)	1 µg/mL (≈ 2.55 µM)	MIC (E. coli ATCC 25922; E. coli ATCC 25922 (Reference), listed as Example I compound V): 0.5 µg/mL (≈ 1.27 µM); MIC (E. coli Ec027c (EIEC)): 1 µg/mL (≈ 2.55 µM); MIC (E. coli Ec117c (EIEC)): 1 µg/mL (≈ 2.55 µM); MIC (E. coli Ec118c (EIEC)): 1 µg/mL (≈ 2.55 µM); MIC (E. coli Ec119c (EIEC)): 2 µg/mL (≈ 5.1 µM); MIC [4]: 1 µg/mL (≈ 2.55 µM); MIC [5]: 1 µg/mL (≈ 2.55 µM)
O=C1CN(/N=C/c2ccc([N+](=O)[O-])o2)C(=O)N1 [Nitrofurantoin]	16 µg/mL (≈ 67.2 µM)	16 µg/mL (≈ 67.2 µM)	64 µg/mL (≈ 269 µM)	8 µg/mL (≈ 33.6 µM)	32 µg/mL (≈ 134 µM)	128 µg/mL (≈ 537 µM)	64 µg/mL (≈ 269 µM)	64 µg/mL (≈ 269 µM)	16 to 32 µg/mL (≈ 67.2 to 134 µM)	32 µg/mL (≈ 134 µM)	16 µg/mL (≈ 67.2 µM)	16 µg/mL (≈ 67.2 µM)	16 to 32 µg/mL (≈ 67.2 to 134 µM)	16 to 32 µg/mL (≈ 67.2 to 134 µM)	16 µg/mL (≈ 67.2 µM)	16 µg/mL (≈ 67.2 µM)	16 µg/mL (≈ 67.2 µM)	8 to 16 µg/mL (≈ 33.6 to 67.2 µM)	2 µg/mL (≈ 8.4 µM)	16 µg/mL (≈ 67.2 µM)	MIC (E. coli ATCC 25922; E. coli ATCC 25922 (Reference)): 8 to 16 µg/mL; MIC (E. coli Ec027c (EIEC)): 16 µg/mL (≈ 67.2 µM); MIC (E. coli Ec117c (EIEC)): 8 to 16 µg/mL (≈ 33.6 to 67.2 µM); MIC (E. coli Ec118c (EIEC)): 16 µg/mL (≈ 67.2 µM); MIC (E. coli Ec119c (EIEC)): 16 µg/mL (≈ 67.2 µM); MIC [4]: 16 µg/mL (≈ 67.2 µM); MIC [5]: 16 µg/mL (≈ 67.2 µM)
